Patent US8715706B2, “Methods and devices for delivery of pharmaceutical agents within orifices of the body” (RDD Pharma, Ltd., priority 2009, dated 2014)

Experiments:
anal sphincter [1] = assay: Rectal manometry of resting and squeezing anal pressure tonus after Phenylephrine from localized drug release system; format: in vivo, human; parameters: Squeeze Rectal ref max / Squeeze Abs ref mean: unit not given here
Procedure: The measurements conducted included resting anal pressure tonus and squeezing anal pressure tonus.
(§1) The measurements were conducted using 40 mg and 80 mg of Phenylephprine as API, respectively. A Phenylephprine (API) solution was prepared at 45 degrees Celsius in a heated water bath. A 22 gauge dispensing needle (Techon Systems) was inserted through the tail and into the coated shell of the drug release system. While the shell was evacuated of air, one milliliter of Phenylephprine compound was delivered to the shell via a syringe attached to the needle. A clip was used to seal the tail and the system was left until the Phenylephrine became solid.
A rectal manometer was used to measure resting anal pressure tonus and squeezing anal pressure tonus at baseline (before insertion), […] amount of API in a volume of one milliliter. The API release time ranged between 20-25 minutes (the variation due to changes in the normal human body temperature). The results are shown below in Table III (40 mg) and Table IV (80 mg). Values shown in bold lettering in Table IV represent statistically significant difference (p<0.05) from baseline value, using paired t-test.

anal canal = details: topical, cited from earlier work
[2] = pK studies, rectal rate of absorption using drug release system; details: rectally, drug release system of Example 1, FIGS. 14 and 15
From the text: Accordingly, it is intended to embrace all such alternatives, modifications and variations that fall within the spirit and broad scope of the appended claims.

anal sphincter [3] = assay: Rectal manometry of resting anal pressure after Nifedipine from localized drug release system; format: in vivo, human; details: 90 minutes after insertion, N 6
Procedure: Six healthy individuals were selected for measuring resting anal pressure as a function of different doses of Nifedipine administered using a localized drug release system as per an embodiment of the present invention.
All dimensions are when empty before filling with API. When tested in a water bath, substantially all the API exited the shell within 40 minutes.
as §1, with “4 mg, 12” for “40”, “or 24” for “and 80”, “Nifedipine” for “Phenylephprine”, “Nifedipine” for “Phenylephrine”
A rectal manometry was used to measure resting anal pressure at baseline (before insertion) and 90 minutes after insertion of each shell with the relevant amount of API in a volume of one milliliter. The time of release of the API (API release time) ranged between 20-25 minutes (the variation due to changes in the normal human body temperature). FIGS. 12A and 12C graphically display the results of this study.

CNC[C@H](O)c1cccc(O)c1 [Phenylephrine]
Length HPV (anal sphincter [1]; 40 mg, 90 min): 2.2 cm | Length Verge to center (anal sphincter [1]; 40 mg, 90 min): 0.8 cm | Resting Abs ref Max (anal sphincter [1]; 40 mg, 90 min): 109.0 mm Hg | Resting Abs ref Mean (anal sphincter [1]; 40 mg, 90 min): 95.0 mm Hg | Resting rectal ref Max (anal sphincter [1]; 40 mg, 90 min): 105.1 mm Hg | Resting rectal ref Mean (anal sphincter [1]; 40 mg, 90 min): 91.2 mm Hg | Squeeze Abs ref mean (anal sphincter [1]; 40 mg, 90 min): 348.7 | Squeeze Rectal ref max (anal sphincter [1]; 40 mg, 90 min): 332.4 | Length HPV (anal sphincter [1]; 40 mg, 180 min): 2.1 cm | Length Verge to center (anal sphincter [1]; 40 mg, 180 min): 0.5 cm | Resting Abs ref Max (anal sphincter [1]; 40 mg, 180 min): 127.8 mm Hg | Resting Abs ref Mean (anal sphincter [1]; 40 mg, 180 min): 93.1 mm Hg | Resting rectal ref Max (anal sphincter [1]; 40 mg, 180 min): 124.0 mm Hg | Resting rectal ref Mean (anal sphincter [1]; 40 mg, 180 min): 89.2 mm Hg | Squeeze Abs ref mean (anal sphincter [1]; 40 mg, 180 min): 336.5 | Squeeze Rectal ref max (anal sphincter [1]; 40 mg, 180 min): 318.8 | Length HPV (anal sphincter [1]; 40 mg, 240 min): 2.5 cm | Length Verge to center (anal sphincter [1]; 40 mg, 240 min): 0.8 cm | Resting Abs ref Max (anal sphincter [1]; 40 mg, 240 min): 94.2 mm Hg | Resting Abs ref Mean (anal sphincter [1]; 40 mg, 240 min): 82.5 mm Hg | Resting rectal ref Max (anal sphincter [1]; 40 mg, 240 min): 88.7 mm Hg | Resting rectal ref Mean (anal sphincter [1]; 40 mg, 240 min): 77.0 mm Hg | Squeeze Abs ref mean (anal sphincter [1]; 40 mg, 240 min): 376.7 | Squeeze Rectal ref max (anal sphincter [1]; 40 mg, 240 min): 363.3 | mean resting anal pressure (anal sphincter [1]; 80 mg in 1 cc volume (8% concentration)): significant increase in the mean resting anal pressure | Length HPV (anal sphincter [1]; 80 mg, 90 min): 2.2 cm | Length Verge to center (anal sphincter [1]; 80 mg, 90 min): 0.5 cm | Resting Abs ref Max (anal sphincter [1]; 80 mg, 90 min): 139.9 mm Hg | Resting Abs ref Mean (anal sphincter [1]; 80 mg, 90 min): 107.6 mm Hg | Resting rectal ref Max (anal sphincter [1]; 80 mg, 90 min): 136.5 mm Hg | Resting rectal ref Mean (anal sphincter [1]; 80 mg, 90 min): 104.2 mm Hg | Squeeze Abs ref mean (anal sphincter [1]; 80 mg, 90 min): 364.1 | Squeeze Rectal ref max (anal sphincter [1]; 80 mg, 90 min): 352.4 | Length HPV (anal sphincter [1]; 80 mg, 180 min): 2.6 cm | Length Verge to center (anal sphincter [1]; 80 mg, 180 min): 0.7 cm | Resting Abs ref Max (anal sphincter [1]; 80 mg, 180 min): 111.8 mm Hg | Resting Abs ref Mean (anal sphincter [1]; 80 mg, 180 min): 90.8 mm Hg | Resting rectal ref Max (anal sphincter [1]; 80 mg, 180 min): 109.2 mm Hg | Resting rectal ref Mean (anal sphincter [1]; 80 mg, 180 min): 88.2 mm Hg | Squeeze Abs ref mean (anal sphincter [1]; 80 mg, 180 min): 350.7 | Squeeze Rectal ref max (anal sphincter [1]; 80 mg, 180 min): 337.6 | Length HPV (anal sphincter [1]; 80 mg, 270 min): 2.5 cm | Length Verge to center (anal sphincter [1]; 80 mg, 270 min): 0.9 cm | Resting Abs ref Max (anal sphincter [1]; 80 mg, 270 min): 96.1 mm Hg | Resting Abs ref Mean (anal sphincter [1]; 80 mg, 270 min): 83.1 mm Hg | Resting rectal ref Max (anal sphincter [1]; 80 mg, 270 min): 92.5 mm Hg | Resting rectal ref Mean (anal sphincter [1]; 80 mg, 270 min): 79.5 mm Hg | Squeeze Abs ref mean (anal sphincter [1]; 80 mg, 270 min): 340.4 | Squeeze Rectal ref max (anal sphincter [1]; 80 mg, 270 min): 321.2 | anal sphincter pressures at resting and at squeezing conditions (anal sphincter [1]; 40 and 80 mg): increased in a dose-dependent manner | resting pressure (anal canal; 30% and 40%, compared with placebo): significant increase in resting pressure at both time points compared with placebo | median resting pressure (anal canal; concentrations of 10% and 20%): modest increase in median resting pressure, this was not statistically significant

Glucagon
rate of absorption [2]: relatively quickly absorbed

COC(=O)C1=C(C)NC(C)=C(C(=O)OC)C1c1ccccc1[N+](=O)[O-] [Nifedipine]
Resting Max Pressure Rectal Ref, Max (anal sphincter [3]; 4 mg): 151.0 | Resting Max Pressure Rectal Ref, Mean (anal sphincter [3]; 4 mg): 111.6 | Resting Max Pressure Rectal Ref, Median (anal sphincter [3]; 4 mg): 111.5 | Resting Max Pressure Rectal Ref, Min (anal sphincter [3]; 4 mg): 72.2 | Resting Mean Pressure Rectal Ref, Max (anal sphincter [3]; 4 mg): 124.0 | Resting Mean Pressure Rectal Ref, Mean (anal sphincter [3]; 4 mg): 94.2 | Resting Mean Pressure Rectal Ref, Median (anal sphincter [3]; 4 mg): 92.3 | Resting Mean Pressure Rectal Ref, Min (anal sphincter [3]; 4 mg): 57.7 | Resting Max Pressure Rectal Ref, Max (anal sphincter [3]; 12 mg): 187.1 | Resting Max Pressure Rectal Ref, Mean (anal sphincter [3]; 12 mg): 105.9 | Resting Max Pressure Rectal Ref, Median (anal sphincter [3]; 12 mg): 88.0 | Resting Max Pressure Rectal Ref, Min (anal sphincter [3]; 12 mg): 79.8 | Resting Mean Pressure Rectal Ref, Max (anal sphincter [3]; 12 mg): 89.4 | Resting Mean Pressure Rectal Ref, Mean (anal sphincter [3]; 12 mg): 75.0 | Resting Mean Pressure Rectal Ref, Median (anal sphincter [3]; 12 mg): 73.2 | Resting Mean Pressure Rectal Ref, Min (anal sphincter [3]; 12 mg): 58.9 | Resting Max Pressure Rectal Ref, Max (anal sphincter [3]; 24 mg): 153.7 | Resting Max Pressure Rectal Ref, Mean (anal sphincter [3]; 24 mg): 90.2 | Resting Max Pressure Rectal Ref, Median (anal sphincter [3]; 24 mg): 79.7 | Resting Max Pressure Rectal Ref, Min (anal sphincter [3]; 24 mg): 58.8 | Resting Mean Pressure Rectal Ref, Max (anal sphincter [3]; 24 mg): 80.0 | Resting Mean Pressure Rectal Ref, Mean (anal sphincter [3]; 24 mg): 63.9 | Resting Mean Pressure Rectal Ref, Median (anal sphincter [3]; 24 mg): 64.4 | Resting Mean Pressure Rectal Ref, Min (anal sphincter [3]; 24 mg): 51.7
